# Data: PubChem BioAssay AID1745844 (Carcinogenic Potency Database (CPDB), 2022)
# Active and inactive are the calls of the source. No rule for the calls is given here.
# Test system: rodent lifetime carcinogenesis bioassay, tumor incidence TD50
# Assay: chronic cancer bioassays in animals – CPDB, compiled studies (AID 1745844)
# [1] = mouse, strain B6AKF1, females, oral dosing, site: any site (literature study), lesion: several types, types named in the paper, dosed 76 weeks, study length 76 weeks
# [2] = mouse, strain B6AKF1, males, oral dosing, site: any site (literature study), lesion: several types, types named in the paper, dosed 76 weeks, study length 76 weeks
# [3] = mouse, strain B6AKF1, males, oral dosing, site: liver, lesion: hepatoma, dosed 76 weeks, study length 76 weeks
# [4] = mouse, strain B6AKF1, males, oral dosing, site: lung, lesion: adenoma, dosed 76 weeks, study length 76 weeks
# [5] = mouse, strain B6C3F1, females, oral dosing, site: any site (literature study), lesion: several types, types named in the paper, dosed 76 weeks, study length 76 weeks
# [6] = mouse, strain B6C3F1, females, oral dosing, site: liver, lesion: hepatoma, dosed 76 weeks, study length 76 weeks
# [7] = mouse, strain B6C3F1, males, oral dosing, site: any site (literature study), lesion: several types, types named in the paper, dosed 76 weeks, study length 76 weeks
# [8] = mouse, strain B6C3F1, males, oral dosing, site: liver, lesion: hepatoma, dosed 76 weeks, study length 76 weeks
smiles,measurement,setting,value
c1ccc(Nc2ccc3ccccc3c2)cc1,carcinogen call,"hamster, strain Syrian Golden, females, by gavage, site: any site (literature study), lesion: several types, types named in the paper, dosed 84 weeks, study length 84 weeks",negative (inactive)
same,carcinogen call,"hamster, strain Syrian Golden, males, by gavage, site: any site (literature study), lesion: several types, types named in the paper, dosed 84 weeks, study length 84 weeks",negative (inactive)
same,TD50,[1],1080 mg/kg/day
same,TD50,[2],186 mg/kg/day
same,TD50,[3],460 mg/kg/day
same,TD50,[4],431 mg/kg/day
same,TD50,"mouse, strain B6C3F1, females, in feed, site: kidney, lesion: tubular-cell adenoma + tubular-cell adenocarcinoma, dosed 103 weeks, study length 104 weeks",10800 mg/kg/day
same,TD50,"mouse, strain B6C3F1, females, in feed, site: liver, lesion: hepatocellular adenoma + hepatocellular carcinoma + neoplastic nodule, dosed 103 weeks, study length 104 weeks",5630 mg/kg/day
same,TD50,[5],1080 mg/kg/day
same,TD50,[6],1080 mg/kg/day
same,TD50,"mouse, strain B6C3F1, males, in feed, site: any site (literature study), lesion: several types, types named in the paper, dosed 103 weeks, study length 104 weeks",4510 mg/kg/day
same,TD50,"mouse, strain B6C3F1, males, in feed, site: liver, lesion: hepatocellular adenoma + hepatocellular carcinoma + neoplastic nodule, dosed 103 weeks, study length 104 weeks",1350 mg/kg/day
same,TD50,"mouse, strain B6C3F1, males, in feed, site: subcutaneous tissue, lesion: fibrosarcoma + neurofibrosarcoma + sarcoma, NOS, dosed 103 weeks, study length 104 weeks",2380 mg/kg/day (inactive)
same,TD50,[7],108 mg/kg/day
same,TD50,[8],165 mg/kg/day
same,carcinogen call,"rat, strain Fischer 344, females, in feed, site: any site (literature study), lesion: several types, types named in the paper, dosed 103 weeks, study length 104 weeks",negative (inactive)
same,carcinogen call,"rat, strain Fischer 344, males, in feed, site: any site (literature study), lesion: several types, types named in the paper, dosed 103 weeks, study length 104 weeks",negative (inactive)
same,carcinogen call,"rat, strain Sprague-Dawley, females, by gavage, site: any site (literature study), lesion: several types, types named in the paper, dosed 136 weeks, study length 136 weeks",negative (inactive)
same,carcinogen call,"rat, strain Sprague-Dawley, males, by gavage, site: any site (literature study), lesion: several types, types named in the paper, dosed 160 weeks, study length 160 weeks",negative (inactive)
CN(C)P(=O)(N(C)C)N(C)C,TD50,"rat, strain Charles River CD (Sprague-Dawley), both sexes, inhaled, site: nasal cavity, adenoid, lesion: squamous-cell carcinoma, dosed 53 weeks, study length 104 weeks",0.519 mg/kg/day
same,TD50,"rat, strain Charles River CD (Sprague-Dawley), both sexes, inhaled, site: nasal cavity, adenoid, lesion: squamous-cell carcinoma, dosed 72 weeks, study length 104 weeks",0.608 mg/kg/day
same,TD50,"rat, strain Charles River CD (Sprague-Dawley), both sexes, inhaled, site: nasal cavity, lesion: epidermoid carcinoma, dosed 53 weeks, study length 104 weeks",0.0581 mg/kg/day
same,TD50,"rat, strain Charles River CD (Sprague-Dawley), both sexes, inhaled, site: nasal cavity, lesion: epidermoid carcinoma, dosed 72 weeks, study length 104 weeks",0.0456 mg/kg/day
same,TD50,"rat, strain Charles River CD (Sprague-Dawley), both sexes, inhaled, site: nasal cavity, lesion: malignant tumor, dosed 53 weeks, study length 104 weeks",0.0416 mg/kg/day
same,TD50,"rat, strain Charles River CD (Sprague-Dawley), both sexes, inhaled, site: nasal cavity, lesion: malignant tumor, dosed 72 weeks, study length 104 weeks",0.0387 mg/kg/day
same,TD50,"rat, strain Charles River CD (Sprague-Dawley), both sexes, inhaled, site: nasal cavity, lesion: several types, types named in the paper, dosed 53 weeks, study length 104 weeks",0.0345 mg/kg/day
same,TD50,"rat, strain Charles River CD (Sprague-Dawley), both sexes, inhaled, site: nasal cavity, lesion: several types, types named in the paper, dosed 72 weeks, study length 104 weeks",0.0344 mg/kg/day
COc1ccc(C(=O)Nc2c(Cl)cncc2Cl)cc1OC1CCCC1,TD50,"rat, strain IcoIbm:OFA (Sprague-Dawley derived), females, inhaled, site: nasal cavity, olfactory epithelium, lesion: carcinoma, dosed 102 weeks, study length 102 weeks",24.6 mg/kg/day
same,TD50,"rat, strain IcoIbm:OFA (Sprague-Dawley derived), females, inhaled, site: nasal cavity, olfactory epithelium, lesion: malignant tumor, dosed 102 weeks, study length 102 weeks",1.22 mg/kg/day
same,TD50,"rat, strain IcoIbm:OFA (Sprague-Dawley derived), females, inhaled, site: nasal cavity, olfactory epithelium, lesion: neuroblastoma, in situ, dosed 102 weeks, study length 102 weeks",12.2 mg/kg/day
same,TD50,"rat, strain IcoIbm:OFA (Sprague-Dawley derived), females, inhaled, site: nasal cavity, olfactory epithelium, lesion: neuroblastoma, dosed 102 weeks, study length 102 weeks",1.68 mg/kg/day
same,TD50,"rat, strain IcoIbm:OFA (Sprague-Dawley derived), females, inhaled, site: nasal cavity, olfactory epithelium, lesion: several types, types named in the paper, dosed 102 weeks, study length 102 weeks",1.18 mg/kg/day
same,TD50,"rat, strain IcoIbm:OFA (Sprague-Dawley derived), females, inhaled, site: nasal cavity, olfactory region, Bowman's gland, lesion: adenocarcinoma, dosed 102 weeks, study length 102 weeks",24.6 mg/kg/day
same,TD50,"rat, strain IcoIbm:OFA (Sprague-Dawley derived), females, inhaled, site: nasal cavity, olfactory region, Bowman's gland, lesion: adenoma, dosed 102 weeks, study length 102 weeks",24.7 mg/kg/day
same,TD50,"rat, strain IcoIbm:OFA (Sprague-Dawley derived), males, inhaled, site: nasal cavity, olfactory epithelium, lesion: carcinoma, dosed 104 weeks, study length 104 weeks",51.5 mg/kg/day
same,TD50,"rat, strain IcoIbm:OFA (Sprague-Dawley derived), males, inhaled, site: nasal cavity, olfactory epithelium, lesion: malignant tumor, dosed 104 weeks, study length 104 weeks",2.48 mg/kg/day
same,TD50,"rat, strain IcoIbm:OFA (Sprague-Dawley derived), males, inhaled, site: nasal cavity, olfactory epithelium, lesion: neuroblastoma, in situ, dosed 104 weeks, study length 104 weeks",17 mg/kg/day
same,TD50,"rat, strain IcoIbm:OFA (Sprague-Dawley derived), males, inhaled, site: nasal cavity, olfactory epithelium, lesion: neuroblastoma, dosed 104 weeks, study length 104 weeks",3.75 mg/kg/day
same,TD50,"rat, strain IcoIbm:OFA (Sprague-Dawley derived), males, inhaled, site: nasal cavity, olfactory epithelium, lesion: several types, types named in the paper, dosed 104 weeks, study length 104 weeks",2.22 mg/kg/day
same,TD50,"rat, strain IcoIbm:OFA (Sprague-Dawley derived), males, inhaled, site: nasal cavity, olfactory region, Bowman's gland, lesion: adenocarcinoma, dosed 104 weeks, study length 104 weeks",25.6 mg/kg/day
same,TD50,"rat, strain IcoIbm:OFA (Sprague-Dawley derived), males, inhaled, site: nasal cavity, olfactory region, Bowman's gland, lesion: adenoma, dosed 104 weeks, study length 104 weeks",12.7 mg/kg/day
O=[O+][O-],TD50,"mouse, strain B6C3F1, females, inhaled, site: lung, lesion: alveolar/bronchiolar adenoma + alveolar/bronchiolar carcinoma, dosed 105 weeks, study length 105 weeks",1.88 mg/kg/day
same,TD50,"mouse, strain B6C3F1, females, inhaled, site: lung, lesion: alveolar/bronchiolar adenoma + alveolar/bronchiolar carcinoma, dosed 130 weeks, study length 130 weeks",2.09 mg/kg/day
same,TD50,"mouse, strain B6C3F1, females, inhaled, site: lung, lesion: alveolar/bronchiolar adenoma, dosed 130 weeks, study length 130 weeks",1.78 mg/kg/day
same,TD50,"mouse, strain B6C3F1, females, inhaled, site: lung, lesion: alveolar/bronchiolar carcinoma, dosed 105 weeks, study length 105 weeks",2.75 mg/kg/day
same,TD50,"mouse, strain B6C3F1, females, inhaled, site: uterus, lesion: endometrial stromal polyp, dosed 105 weeks, study length 105 weeks",6.49 mg/kg/day
same,TD50,"mouse, strain B6C3F1, males, inhaled, site: any site (literature study), lesion: several types, types named in the paper, dosed 104 weeks, study length 104 weeks",0.997 mg/kg/day
same,TD50,"mouse, strain B6C3F1, males, inhaled, site: any site (literature study), lesion: several types, types named in the paper, dosed 130 weeks, study length 130 weeks",1.54 mg/kg/day
same,TD50,"mouse, strain B6C3F1, males, inhaled, site: liver + mesentery + spleen, lesion: hemangiosarcoma, dosed 104 weeks, study length 104 weeks",0.314 mg/kg/day
same,TD50,"mouse, strain B6C3F1, males, inhaled, site: liver, lesion: hepatocellular adenoma + hepatoblastoma + hepatocellular carcinoma, dosed 104 weeks, study length 104 weeks",1.68 mg/kg/day
same,TD50,"mouse, strain B6C3F1, males, inhaled, site: liver, lesion: hepatocellular adenoma + hepatoblastoma + hepatocellular carcinoma, dosed 130 weeks, study length 130 weeks",2.02 mg/kg/day
same,TD50,"mouse, strain B6C3F1, males, inhaled, site: lung, lesion: alveolar/bronchiolar adenoma + alveolar/bronchiolar carcinoma, dosed 104 weeks, study length 104 weeks",0.894 mg/kg/day
same,TD50,"mouse, strain B6C3F1, males, inhaled, site: lung, lesion: alveolar/bronchiolar adenoma + alveolar/bronchiolar carcinoma, dosed 130 weeks, study length 130 weeks",0.961 mg/kg/day
same,TD50,"mouse, strain B6C3F1, males, inhaled, site: lung, lesion: alveolar/bronchiolar carcinoma, dosed 130 weeks, study length 130 weeks",0.633 mg/kg/day
same,carcinogen call,"rat, strain Fischer 344, females, inhaled, site: any site (literature study), lesion: several types, types named in the paper, dosed 104 weeks, study length 104 weeks",negative (inactive)
same,carcinogen call,"rat, strain Fischer 344, females, inhaled, site: any site (literature study), lesion: several types, types named in the paper, dosed 124 weeks, study length 124 weeks",negative (inactive)
same,TD50,"rat, strain Fischer 344, males, inhaled, site: any site (literature study), lesion: several types, types named in the paper, dosed 105 weeks, study length 105 weeks",1.2 mg/kg/day
same,TD50,"rat, strain Fischer 344, males, inhaled, site: any site (literature study), lesion: several types, types named in the paper, dosed 122 weeks, study length 124 weeks",0.138 mg/kg/day (inactive)
same,TD50,"rat, strain Fischer 344, males, inhaled, site: liver, lesion: hepatocellular adenoma + hepatoblastoma + hepatocellular carcinoma, dosed 122 weeks, study length 124 weeks",2.41 mg/kg/day
same,TD50,"rat, strain Fischer 344, males, inhaled, site: thyroid gland, lesion: c-cell adenoma + c-cell carcinoma, dosed 105 weeks, study length 105 weeks",0.0156 mg/kg/day (inactive)
same,TD50,"rat, strain Fischer 344, males, inhaled, site: thyroid gland, lesion: c-cell adenoma, dosed 105 weeks, study length 105 weeks",0.019 mg/kg/day
same,TD50,"rat, strain Sprague-Dawley, males, inhaled, site: lung, lesion: adenoma, dosed 86 weeks, study length 86 weeks",0.204 mg/kg/day
[S-]c1nc2ccccc2s1.[S-]c1nc2ccccc2s1.[Zn+2],carcinogen call,[1],negative (inactive)
same,carcinogen call,"mouse, strain B6AKF1, females, oral dosing, site: liver, lesion: hepatoma, dosed 76 weeks, study length 76 weeks",negative (inactive)
same,carcinogen call,"mouse, strain B6AKF1, females, oral dosing, site: lung, lesion: adenoma, dosed 76 weeks, study length 76 weeks",negative (inactive)
same,carcinogen call,[2],negative (inactive)
same,carcinogen call,[3],negative (inactive)
same,carcinogen call,[4],negative (inactive)
same,TD50,[5],2790 mg/kg/day (inactive)
same,carcinogen call,[6],negative (inactive)
same,carcinogen call,"mouse, strain B6C3F1, females, oral dosing, site: lung, lesion: several types, types named in the paper, dosed 76 weeks, study length 76 weeks",negative (inactive)
same,TD50,[7],319 mg/kg/day (inactive)
same,TD50,[8],388 mg/kg/day (inactive)
same,TD50,"mouse, strain B6C3F1, males, oral dosing, site: lung, lesion: adenoma, dosed 76 weeks, study length 76 weeks",2750 mg/kg/day (inactive)
